Assay results taken from ChEMBL document CHEMBL1142859, “Synthesis and characterization of a platinum(II) complex tethered to a ligand of the peripheral benzodiazepine receptor” (J Med Chem, 2007).

Target: Translocator protein (Rattus norvegicus, UniProt P16257)
Assay: Displacement of [3H]PK 11195 from PBR in Sprague-Dawley rat cerebral cortex
Type: tissue-based

Sequence of Translocator protein (P16257 whole entry, looked up): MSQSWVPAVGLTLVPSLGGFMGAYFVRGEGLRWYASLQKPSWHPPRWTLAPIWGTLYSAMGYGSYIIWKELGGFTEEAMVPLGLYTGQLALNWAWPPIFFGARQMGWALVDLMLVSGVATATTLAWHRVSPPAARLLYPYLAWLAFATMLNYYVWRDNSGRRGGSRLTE

With CCCN(CCC)C(=O)Cc1c(-c2nccs2)nc2c(Cl)cc(Cl)cn12 the IC50 was 2.81 nM.
